{"source": "ChEMBL document CHEMBL5465560", "about": "“Selectivity Literature for EUbOPEN Chemogenomic Library” (2024)", "key": {"[1]": {"target": "Serine/threonine-protein kinase 32C (Homo sapiens) (UniProt Q86UX6)", "sequence (Q86UX6 whole entry)": "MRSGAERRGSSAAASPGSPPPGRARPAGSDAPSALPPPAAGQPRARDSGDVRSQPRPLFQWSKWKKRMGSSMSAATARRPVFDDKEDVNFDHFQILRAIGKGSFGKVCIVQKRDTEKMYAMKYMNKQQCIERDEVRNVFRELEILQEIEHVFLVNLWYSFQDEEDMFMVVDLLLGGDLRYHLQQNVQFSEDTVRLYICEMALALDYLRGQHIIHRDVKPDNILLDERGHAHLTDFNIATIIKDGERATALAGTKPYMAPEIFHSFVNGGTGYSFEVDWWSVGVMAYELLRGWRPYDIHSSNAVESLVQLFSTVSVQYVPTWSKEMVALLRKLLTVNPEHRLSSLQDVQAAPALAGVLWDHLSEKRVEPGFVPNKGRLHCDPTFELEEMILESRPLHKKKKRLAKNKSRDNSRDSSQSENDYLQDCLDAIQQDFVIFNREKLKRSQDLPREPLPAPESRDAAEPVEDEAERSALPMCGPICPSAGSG", "assay": "Selectivity interaction (KinomeScan (DiscoverX)) EUB0000092b STK32C", "settings": "at 10 µM"}, "[2]": {"target": "Serine/threonine-protein kinase PLK1 (Homo sapiens, UniProt P53350)", "sequence (P53350 whole entry)": "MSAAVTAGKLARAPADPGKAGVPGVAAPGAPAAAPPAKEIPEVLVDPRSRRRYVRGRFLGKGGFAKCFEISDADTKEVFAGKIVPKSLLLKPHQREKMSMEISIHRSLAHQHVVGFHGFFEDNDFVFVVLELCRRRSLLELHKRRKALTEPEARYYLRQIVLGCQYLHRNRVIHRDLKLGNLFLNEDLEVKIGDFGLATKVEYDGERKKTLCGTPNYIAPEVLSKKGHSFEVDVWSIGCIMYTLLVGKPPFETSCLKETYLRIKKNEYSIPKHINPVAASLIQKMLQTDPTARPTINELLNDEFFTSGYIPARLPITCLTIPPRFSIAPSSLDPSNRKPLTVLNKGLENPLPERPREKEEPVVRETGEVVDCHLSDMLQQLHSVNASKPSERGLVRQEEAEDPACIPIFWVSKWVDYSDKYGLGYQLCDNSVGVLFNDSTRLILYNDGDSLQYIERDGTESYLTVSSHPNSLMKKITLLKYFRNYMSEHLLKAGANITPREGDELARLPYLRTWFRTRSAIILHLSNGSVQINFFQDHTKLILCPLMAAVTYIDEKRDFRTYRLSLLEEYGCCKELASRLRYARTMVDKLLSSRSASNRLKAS", "settings": "at 10 µM"}, "[3]": {"target": "T1, EKC/KEOPS complex subunit TP53RK (Homo sapiens) (UniProt Q96S44)", "T1 sequence (whole entry)": "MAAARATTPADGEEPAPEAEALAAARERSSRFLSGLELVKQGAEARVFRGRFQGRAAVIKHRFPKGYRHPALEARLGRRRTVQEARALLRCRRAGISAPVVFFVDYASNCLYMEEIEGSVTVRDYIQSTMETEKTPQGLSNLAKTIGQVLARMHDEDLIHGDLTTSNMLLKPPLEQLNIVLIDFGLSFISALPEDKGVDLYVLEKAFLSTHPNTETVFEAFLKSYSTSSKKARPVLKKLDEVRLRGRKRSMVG", "assay": "Selectivity interaction (ActivX KiNativ screen (kinase selectivity in THP-1 cell lysates)) EUB0000639a TP53RK", "format": "subcellular", "settings": "lysate"}, "[4]": {"target": "5'-AMP-activated protein kinase catalytic subunit alpha-2 (Homo sapiens) (UniProt P54646)", "sequence (P54646 whole entry, looked up)": "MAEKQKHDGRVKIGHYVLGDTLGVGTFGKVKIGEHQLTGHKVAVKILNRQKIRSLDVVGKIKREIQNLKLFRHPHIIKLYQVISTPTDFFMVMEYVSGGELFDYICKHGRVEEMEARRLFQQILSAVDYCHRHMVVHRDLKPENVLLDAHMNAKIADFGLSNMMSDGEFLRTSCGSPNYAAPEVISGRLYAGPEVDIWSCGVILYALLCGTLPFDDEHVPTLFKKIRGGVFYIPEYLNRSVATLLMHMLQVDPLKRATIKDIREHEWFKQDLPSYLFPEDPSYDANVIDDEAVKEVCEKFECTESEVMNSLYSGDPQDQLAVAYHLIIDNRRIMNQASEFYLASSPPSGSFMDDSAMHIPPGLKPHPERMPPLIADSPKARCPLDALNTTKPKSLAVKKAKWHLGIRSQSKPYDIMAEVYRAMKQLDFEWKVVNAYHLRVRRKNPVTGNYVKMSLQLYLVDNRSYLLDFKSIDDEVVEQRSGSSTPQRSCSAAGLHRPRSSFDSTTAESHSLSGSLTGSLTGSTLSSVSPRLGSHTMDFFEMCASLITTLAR", "assay": "Selectivity interaction (ActivX KiNativ screen (kinase selectivity in THP-1 cell lysates)) EUB0000639a PRKAA2", "format": "subcellular", "settings": "lysate"}, "[5]": {"target": "T2, Rhodopsin kinase GRK7 (Homo sapiens) (UniProt Q8WTQ7)", "T2 sequence (whole entry)": "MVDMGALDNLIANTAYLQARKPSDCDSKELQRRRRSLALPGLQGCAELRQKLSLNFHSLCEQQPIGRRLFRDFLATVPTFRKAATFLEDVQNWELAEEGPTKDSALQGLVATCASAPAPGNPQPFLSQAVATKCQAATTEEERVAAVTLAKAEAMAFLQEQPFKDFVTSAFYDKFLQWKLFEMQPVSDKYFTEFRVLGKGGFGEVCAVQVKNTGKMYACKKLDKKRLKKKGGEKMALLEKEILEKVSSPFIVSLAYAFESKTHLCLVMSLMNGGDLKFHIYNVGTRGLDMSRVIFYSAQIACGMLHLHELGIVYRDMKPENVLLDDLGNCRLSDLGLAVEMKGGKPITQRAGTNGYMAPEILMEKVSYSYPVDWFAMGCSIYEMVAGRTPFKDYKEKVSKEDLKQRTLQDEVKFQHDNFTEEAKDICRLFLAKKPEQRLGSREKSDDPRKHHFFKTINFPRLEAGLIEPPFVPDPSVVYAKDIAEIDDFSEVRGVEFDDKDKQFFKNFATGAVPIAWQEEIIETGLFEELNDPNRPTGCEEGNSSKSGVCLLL", "assay": "Selectivity interaction (KinomeScan (DiscoverX)) EUB0000595a GRK7", "settings": "at 10 µM"}, "[6]": {"target": "Serine/threonine-protein kinase pim-3 (Homo sapiens) (UniProt Q86V86)", "assay": "Selectivity interaction (KinomeScan (DiscoverX)) EUB0000045b PIM3"}, "[7]": {"target": "T3, Ephrin type-A receptor 6 (Homo sapiens) (UniProt Q9UF33)", "T3 sequence (whole entry)": "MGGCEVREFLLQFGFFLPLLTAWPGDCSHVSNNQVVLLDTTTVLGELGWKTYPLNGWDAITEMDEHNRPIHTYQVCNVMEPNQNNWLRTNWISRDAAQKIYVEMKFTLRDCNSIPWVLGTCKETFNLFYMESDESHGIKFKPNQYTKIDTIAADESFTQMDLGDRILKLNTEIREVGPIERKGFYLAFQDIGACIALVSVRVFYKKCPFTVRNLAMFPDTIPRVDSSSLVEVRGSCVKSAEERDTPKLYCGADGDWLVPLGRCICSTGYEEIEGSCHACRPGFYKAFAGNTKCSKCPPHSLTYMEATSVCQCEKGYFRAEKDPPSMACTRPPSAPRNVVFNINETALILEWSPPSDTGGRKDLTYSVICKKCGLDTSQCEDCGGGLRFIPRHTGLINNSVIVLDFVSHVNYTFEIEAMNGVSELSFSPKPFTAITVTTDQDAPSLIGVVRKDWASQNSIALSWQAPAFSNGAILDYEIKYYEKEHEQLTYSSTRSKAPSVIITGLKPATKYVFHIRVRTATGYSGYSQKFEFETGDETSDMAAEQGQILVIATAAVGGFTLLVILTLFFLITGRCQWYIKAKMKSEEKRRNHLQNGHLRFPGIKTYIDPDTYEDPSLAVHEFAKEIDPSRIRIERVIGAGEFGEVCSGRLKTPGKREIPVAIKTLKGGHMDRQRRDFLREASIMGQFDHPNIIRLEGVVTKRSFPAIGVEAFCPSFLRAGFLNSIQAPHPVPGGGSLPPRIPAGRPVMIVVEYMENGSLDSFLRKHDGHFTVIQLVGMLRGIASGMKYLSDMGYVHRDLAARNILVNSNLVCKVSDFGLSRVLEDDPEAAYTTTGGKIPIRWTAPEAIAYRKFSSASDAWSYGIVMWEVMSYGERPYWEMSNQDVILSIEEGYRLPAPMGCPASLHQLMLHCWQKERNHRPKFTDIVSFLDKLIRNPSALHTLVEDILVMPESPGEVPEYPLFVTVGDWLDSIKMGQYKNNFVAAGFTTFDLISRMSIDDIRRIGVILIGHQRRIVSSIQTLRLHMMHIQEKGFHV", "assay": "Selectivity interaction (KinomeScan (DiscoverX)) EUB0001619a EPHA6", "settings": "at 1 µM"}}, "data": [{"smiles": "CCC(=O)N1CCN(c2ccc(-n3c(=O)ccc4cnc5ccc(-c6cnc7ccccc7c6)cc5c43)cc2C(F)(F)F)CC1", "values": [{"measurement": "% of control", "setting": "[1]", "result": 100, "unit": "%"}]}, {"smiles": "Cc1cc([C@@H](C)Nc2ccccc2C(=O)O)c2nc(N3CCOCC3)cc(=O)n2c1", "note": "[AZD-6482]", "values": [{"measurement": "% of control", "setting": "[2]", "result": 100, "unit": "%"}]}, {"smiles": "CC[C@@H]1[C@H](F)C(=O)N[C@@H]1COc1nccc2cc(C(N)=O)c(OC)cc12", "note": "[ZIMLOVISERTIB]", "values": [{"measurement": "% of inhibition", "setting": "[3]; at 0.01 µM", "result": 13.5, "unit": "%"}, {"measurement": "% of inhibition", "setting": "[3]; at 0.04 µM", "result": 5.2, "unit": "%"}, {"measurement": "% of inhibition", "setting": "[3]; at 0.2 µM", "result": 15.3, "unit": "%"}, {"measurement": "% of inhibition", "setting": "[3]; at 1 µM", "result": 30.7, "unit": "%"}, {"measurement": "% of inhibition", "setting": "[3]; at 5 µM", "result": 60.6, "unit": "%"}, {"measurement": "% of inhibition", "setting": "[4]; at 0.01 µM", "result": 16, "unit": "%"}, {"measurement": "% of inhibition", "setting": "[4]; at 0.04 µM", "result": 21.7, "unit": "%"}, {"measurement": "% of inhibition", "setting": "[4]; at 0.2 µM", "result": 11.2, "unit": "%"}, {"measurement": "% of inhibition", "setting": "[4]; at 1 µM", "result": 11.8, "unit": "%"}, {"measurement": "% of inhibition", "setting": "[4]; at 5 µM", "result": 28.8, "unit": "%"}]}, {"smiles": "COCC(=O)NC/C=C/c1ccc2ncnc(Nc3ccc(Oc4ccc(C)nc4)c(C)c3)c2c1", "note": "[CP-724714]", "values": [{"measurement": "% of control", "setting": "[5]", "result": 100, "unit": "%"}]}, {"smiles": "C=CC(=O)Nc1cc(-n2c(=O)ccc3cnc4ccc(-c5ccc(NS(C)(=O)=O)cc5)cc4c32)ccc1C", "values": [{"measurement": "% of control", "setting": "[6]; at 1 µM", "result": 83, "unit": "%"}, {"measurement": "% of control", "setting": "[6]; at 10 µM", "result": 82, "unit": "%"}]}, {"smiles": "N#Cc1cccc(-c2c[nH]c3ncnc(N4CCOCC4)c23)c1", "values": [{"measurement": "% of control", "setting": "[7]", "result": 100, "unit": "%"}]}]}
